7 molecules from ChEMBL document CHEMBL3822455, “Aryl or heteroaryl substituted aminal derivatives of HCV NS5A inhibitor MK-8742” (Bioorg Med Chem Lett, 2016) can be followed below.

Each structure is given as a SMILES string. Where only a bound is given, the exact number is not on record here.

Data set [1] relates to Hepatitis C virus. As to the kind of experiment: Antiviral activity against HCV genotype 1a assessed as replicon RNA level measured after 3 days by real-time PCR method. In kind it is functional, organism-based, Hepacivirus hominis. Particulars: subtype 1a, 72 h.
Data set [2] has as its system Hepatitis C virus. Nature of the data set: Antiviral activity against HCV genotype 1b assessed as replicon RNA level measured after 3 days by real-time PCR method. The class given is functional, organism-based, Hepacivirus hominis. The following applies: 72 h.
The test system of data set [3] is Hepatitis C virus. As to the kind of experiment: Antiviral activity against HCV genotype 2a assessed as replicon RNA level measured after 3 days by real-time PCR method. The class given is functional, organism-based, Hepacivirus hominis. The following applies: 72 h.
The test system of data set [4] is Hepatitis C virus. Nature of the data set: Antiviral activity against HCV genotype 2b assessed as replicon RNA level measured after 3 days by real-time PCR method. In kind it is functional, organism-based, Hepacivirus hominis. Particulars: 72 h.
The test system of data set [5] is Hepatitis C virus. Nature of the data set: Antiviral activity against HCV genotype 3a assessed as replicon RNA level measured after 3 days by real-time PCR method. Particulars: 72 h. In kind it is functional, organism-based, Hepacivirus hominis.
The test system of data set [6] is Hepatitis C virus. As to the kind of experiment: Antiviral activity against HCV genotype 4a assessed as replicon RNA level measured after 3 days by real-time PCR method. In kind it is functional, organism-based, Hepacivirus hominis. The following applies: 72 h.
Data set [7] relates to Hepatitis C virus. As to the kind of experiment: Antiviral activity against HCV genotype 1a harboring NS5A Y93H mutant assessed as replicon RNA level measured after 3 days by real-time PCR method. The class given is functional, organism-based, Hepacivirus hominis. The following applies: subtype 1a, 72 h.
Data set [8] has as its system Hepatitis C virus. As to the kind of experiment: Antiviral activity against HCV genotype 1a harboring NS5A L31V mutant assessed as replicon RNA level measured after 3 days by real-time PCR method. Particulars: subtype 1a, 72 h. In kind it is functional, organism-based, Hepacivirus hominis.
Data set [9] is described as follows: (§1) AUC in Sprague-Dawley rat at 5 mg/kg, po. In kind it is ADME, organism-based. The following applies: Sprague-Dawley, in vivo.
A short description of data set [10]: Half life in Sprague-Dawley rat at 2 mg/kg, iv or 5 mg/kg, po. The following applies: in vivo. In kind it is ADME, organism-based.
Data set [11] can be described thus: Clearance in Sprague-Dawley rat at 2 mg/kg, iv or 5 mg/kg, po. The class given is ADME, organism-based. Particulars: in vivo.
The nature of data set [12]: (§2) Oral bioavailability in Sprague-Dawley rat at 5 mg/kg. In kind it is ADME, organism-based. The following applies: Sprague-Dawley, in vivo.
The subject of data set [13] is Rattus norvegicus. The description is as §1. The class given is ADME, organism-based. Particulars: in vivo.
Data set [14] has as its system Rattus norvegicus. The data set is described as §2. In kind it is ADME, organism-based. Particulars: in vivo.
Data set [15] has as its system Canis familiaris. As to the kind of experiment: AUC in beagle dog at 5 mg/kg, po. In kind it is ADME, organism-based, Canis lupus familiaris. Particulars: in vivo.
Data set [16] in a line: Half life in beagle dog at 2 mg/kg, iv or 5 mg/kg, po. In kind it is ADME, organism-based, Canis lupus familiaris. Particulars: in vivo.
Data set [17] relates to Canis familiaris. As to the kind of experiment: Oral bioavailability in beagle dog at 5 mg/kg. The following applies: in vivo. In kind it is ADME, organism-based, Canis lupus familiaris.
Data set [18] can be described thus: Selectivity ratio of EC50 for HCV genotype 2b to EC50 for HCV genotype 1a. In kind it is functional.
Data set [19] has as its system Hepatitis C virus. As to the kind of experiment: Selectivity ratio of EC50 for HCV genotype 1a harboring NS5A Y93H mutant to EC50 for HCV genotype 1a. The class given is functional, Hepacivirus hominis, subtype 1a.
Data set [20] concerns Hepatitis C virus. As to the kind of experiment: Selectivity ratio of EC50 for HCV genotype 1a harboring NS5A L31V mutant to EC50 for HCV genotype 1a. The class given is functional, Hepacivirus hominis, subtype 1a.

As for `COC(=O)N[C@H](C(=O)N1CCC[C@H]1c1ncc(-c2ccc3c(c2)OC(c2ccccc2F)n2c-3cc3cc(-c4cnc([C@@H]5CCCN5C(=O)[C@@H](NC(=O)OC)C(C)C)[nH]4)ccc32)[nH]1)C(C)C` (some centres undefined), the EC50 in data set [1] is 2 pM; in [2], 3 pM; in data set [3], 3 pM; in [4], 3000 pM; in data set [5], 100 pM; in data set [6] it was 7 pM. For the same molecule, the EC50 was determined as 6000 pM in data set [7] and 400 pM in [8]. In data set [9], this molecule showed an AUC of 0.67 µM·h. Moreover, the half-life in [10] is 4.6 h. Besides, the clearance in data set [11] is 12 mL/min/kg. In data set [12], the bioavailability was 8%.
On to `COC(=O)N[C@H](C(=O)N1CCC[C@H]1c1ncc(-c2ccc3c(c2)OC(c2cccc(F)c2)n2c-3cc3cc(-c4cnc([C@@H]5CCCN5C(=O)[C@@H](NC(=O)OC)C(C)C)[nH]4)ccc32)[nH]1)C(C)C` (some centres undefined), for which the EC50 in data set [1] was determined as 3 pM; in data set [2] it was 2 pM; in [3] it was 4 pM; in data set [4], 1000 pM; in data set [5] it was 40 pM; in data set [6], 6 pM. Also, the figures for the EC50 in data set [7] and in [8] were 4000 pM and 200 pM, respectively. Further, the AUC in data set [9] was 1.5 µM·h. The half-life in [10] is 5.4 h. In data set [11], this molecule gave a clearance of 7 mL/min/kg. In addition, the bioavailability in [12] stood at 12%.
In the case of `COC(=O)N[C@H](C(=O)N1CCC[C@H]1c1ncc(-c2ccc3c(c2)OC(c2cc(F)cc(F)c2)n2c-3cc3cc(-c4cnc([C@@H]5CCCN5C(=O)[C@@H](NC(=O)OC)C(C)C)[nH]4)ccc32)[nH]1)C(C)C` (some centres undefined), the EC50 in data set [1] was 11 pM; in data set [2], 10 pM; in data set [3], 20 pM; in data set [4], 500 pM; in data set [5], 90 pM; in [6], 4 pM. Also, the EC50 is 4000 pM in data set [7] and 300 pM in [8]. Further, in data set [9], the AUC turned out to be 1.5 µM·h. In addition, the half-life in data set [10] was 5.1 h. Also, the clearance in data set [11] turned out to be 9 mL/min/kg. This molecule also came in with a bioavailability in [12] of 15%.
For `COC(=O)N[C@H](C(=O)N1CCC[C@H]1c1ncc(-c2ccc3c(c2)OC(c2cccc(Cl)c2)n2c-3cc3cc(-c4cnc([C@@H]5CCCN5C(=O)[C@@H](NC(=O)OC)C(C)C)[nH]4)ccc32)[nH]1)C(C)C` (some centres undefined), the half-maximal effective concentration (EC50) in data set [1] is 3 pM; in data set [2], 2 pM; in data set [3] it was 10 pM; in data set [4], 400 pM; in data set [5] it was 30 pM; in data set [6] it was 2 pM. Moreover, the figures for the EC50 in data set [7] and in data set [8] were 3000 pM and 100 pM, respectively. Moreover, the AUC in data set [9] stood at 1.4 µM·h. The same molecule gave a half-life in data set [10] of 4.1 h. This molecule also yielded a clearance in [11] of 8 mL/min/kg. Also, the bioavailability in data set [12] was determined as 12%.
`COC(=O)N[C@H](C(=O)N1CCC[C@H]1c1ncc(-c2ccc3c(c2)OC(c2cccc(OC)c2)n2c-3cc3cc(-c4cnc([C@@H]5CCCN5C(=O)[C@@H](NC(=O)OC)C(C)C)[nH]4)ccc32)[nH]1)C(C)C` (mixture of isomers): the concentration for a half-maximal effect (EC50) amounted to 4 pM in [1]; 2 pM in data set [2]; 4 pM in data set [3]; 400 pM in data set [4]; 20 pM in [5]; 2 pM in data set [6]. In addition, the EC50 in data set [7] is below 2000 pM; in data set [8], 40 pM. Also, the AUC in [13] turned out to be 0.52 µM·h; in data set [15], 5 µM·h. Also, the half-life in [10] is 4.6 h; in [16], 7.9 h. The F in data set [14] amounted to 6%; in [17], 34%.
Regarding `COC(=O)N[C@H](C(=O)N1CCC[C@H]1c1ncc(-c2ccc3c(c2)OC(c2cc(OC)cc(OC)c2)n2c-3cc3cc(-c4cnc([C@@H]5CCCN5C(=O)[C@@H](NC(=O)OC)C(C)C)[nH]4)ccc32)[nH]1)C(C)C` (mixture of isomers), the half-maximal effective concentration (EC50) was determined as 3 pM in [1]; 2 pM in data set [2]; 2 pM in data set [3]; 200 pM in data set [4]; 20 pM in [5]; 10 pM in data set [6]. In addition, the EC50 in [7] is 800 pM; in data set [8], 300 pM. Also, the Ratio EC50 in data set [18] was determined as 67; in data set [19], 267; in [20] it was 100. Further, in data set [12], the bioavailability amounted to 0%.
In the case of `COC(=O)N[C@H](C(=O)N1CCC[C@H]1c1ncc(-c2ccc3c(c2)OC(c2ccc(OC(F)(F)F)cc2)n2c-3cc3cc(-c4cnc([C@@H]5CCCN5C(=O)[C@@H](NC(=O)OC)C(C)C)[nH]4)ccc32)[nH]1)C(C)C` (mixture of isomers), the EC50 turned out to be 5 pM in data set [1]; 11 pM in data set [2]; 5 pM in data set [3]; 30 pM in [5]; 200 pM in data set [6]; 3000 pM in data set [7]. The EC50 in data set [8] came to 200 pM. The molecule further gave an AUC in [13] of 1.1 µM·h. This molecule gave a half-life in data set [10] of 6.3 h. This molecule also returned a F in [14] of 7%.
